Assay [1] concerns the target Rns (Escherichia coli, UniProt P16114). Nature of the assay: % Inhibition at 82.5 μM, Rns. Type of assay: cell-based, Enterotoxigenic E. coli. The following applies: for inhibition at 82.5 µM: read-out: % Inhibition at 82.5 μM Rns.
The target in assay [2] is VirF (Shigella flexneri, UniProt P0A2T1). Nature of the assay: % Inhibition at 82.5 μM, VirF. Type of assay: cell-based. The following applies: for inhibition at 82.5 µM: read-out: % Inhibition at 82.5 μM VirF, 82.5 μM.
Sequence of VirF (P0A2T1 whole entry): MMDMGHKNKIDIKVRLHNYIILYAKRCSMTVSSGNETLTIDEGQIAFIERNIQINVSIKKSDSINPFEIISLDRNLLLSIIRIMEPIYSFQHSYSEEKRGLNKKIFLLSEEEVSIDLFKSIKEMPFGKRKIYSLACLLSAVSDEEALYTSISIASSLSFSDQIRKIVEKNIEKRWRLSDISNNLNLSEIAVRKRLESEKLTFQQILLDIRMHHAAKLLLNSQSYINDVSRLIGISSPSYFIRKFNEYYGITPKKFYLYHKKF
The target of assay [3] is T1, RhaS (Escherichia coli, UniProt P09377). Nature of the assay: % Inhibition at 82.5 μM, RhaS. Format: cell-based, E. coli.
T1 sequence (P09377 whole entry, the tested form may be a part): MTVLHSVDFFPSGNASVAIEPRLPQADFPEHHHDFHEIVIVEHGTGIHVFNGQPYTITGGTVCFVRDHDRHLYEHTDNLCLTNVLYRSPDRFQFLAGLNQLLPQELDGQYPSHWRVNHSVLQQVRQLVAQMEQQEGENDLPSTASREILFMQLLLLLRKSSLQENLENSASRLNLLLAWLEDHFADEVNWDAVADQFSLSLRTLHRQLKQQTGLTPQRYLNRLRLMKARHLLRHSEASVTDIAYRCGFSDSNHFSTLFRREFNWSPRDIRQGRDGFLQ
Assay [4] has as its system LacI-repressed hts-lacZ fusion. Nature of the assay: LacI-repressed hts-lacZ control reporter fusion (β-galactosidase). Format: cell-based, E. coli. Conditions: hts-lacZ control (SME3359). An excerpt:
The control strain for the secondary high-throughput screen and subsequent experiments was SME3359, and carries the LacI-repressed fusion and LacI-expressing pHG165lacI. The fusion consists of lacZ under the control of an artificial promoter (Phts) with an induced expression level similar to that of the induced rhaBAD operon. Phts is regulated by Lad and induced with IPTG. The Phts core promoter elements include a near-consensus −35 sequence and a −10 sequence followed by a lacO1 operator sequence that overlaps the transcription start site with the same spacing as lacO1 at lacZYA. To construct the upstream half of Phts, oligo 2829 was annealed to oligo 2788 and the primers were extended using the Expand High Fidelity PCR System (Roche Applied Science, Indianapolis, Ind.). The downstream half of the Phts promoter was constructed by similarly annealing and extending oligos 2789 and 2790.
(§1) The top hit identified in the screen was 1-ethyl-4-(nitromethyl)-3-quinolin-2-yl-4H-quinoline, Compound 2. […] Lysis/ONPG buffer (50 μL, as in Primary Screen) was added to each well and the plate was immediately placed into a PowerWave XS plate reader (BioTek Instruments, Inc., Winooski, Vt.), set to read the OD420 of each well every 15 min for 4 hr. […] Due to differences in kinetics of lacZ reporter expression, the rhaB-lacZ strains were analyzed at 4 hours and the hts-lacZ strain was analyzed at 1 hr. Percent activity was calculated for each condition as described above, using the single time point with appropriate OD420 levels for each strain. […] IC50 and maximal inhibition values were calculated using the XLfit add-in for Microsoft Excel (ID Business Solutions, Guildford, UK), and graphs were drawn using Prism (GraphPad, La Jolla, Calif.).
In vivo dose-response assays were performed using a procedure described previously. […] Bacterial cultures were mixed with varying concentrations of SE-1 (2.2% DMSO, final), induced with 6.5 mM IPTG for 3 h at 37° C., lysed and β-galactosidase activity was measured. […] IC50 values were calculated and graphs were drawn using Prism (GraphPad, La Jolla, Calif.).

Assay [5] deals with T1, RhaS. Nature of the assay: In vivo dose-response, RhaS-activated rhaB-lacZ reporter fusion (β-galactosidase). Format: cell-based, E. coli. The following applies: full-length RhaS, rhaB-lacZ.
Excerpt: For dose-response studies, a rhaB-lacZ reporter strain was designed that allowed IPTG induction of RhaS or RhaS(163-278) expression from pHG165 (and thus rhaB-lacZ expression). The strain was constructed by introducing malP::lacIq into SME3000 via phage P1vir-mediated generalized transduction. First, SME3000 was transduced with Δcrp-3 zhc-511::Tn10 from SME1403, selecting for tetracycline resistance and screening for sorbitol deficiency (indicating Δcrp) using MacConkey sorbitol. SME3000 Acrp-3 zhc-511::Tn10 was transduced with crp^+ malP::lacI^q from SG22166, selecting for growth on minimal sorbitol and screening for maltose deficiency (indicating malP::lacI^q) using MacConkey maltose. Finally, SME3000 malP::lacI^q zhc-511::Tn10 was transduced with recA::cat from SME1048 by selecting for chloramphenicol resistance, to make strain SME3632.
as §1, with “2. The closely related compound, Compound 1,1-butyl-4-(nitromethyl)-3-quinolin-2-yl-4H-quinoline, was obtained from eMolecules, Inc. (Solana Beach, Calif.; catalog #3761-0013) or Princeton BioMolecular Research (Princeton, N.J.; catalog #OSSL—051168), with the Princeton named used here.” for “2.”

Experimental findings from patent publication US20140088144A1, “INHIBITING MICROBIAL INFECTIONS” (THE UNIVERSITY OF KANSAS, priority 2012, published 2014) are described below.

Sequence of Rns (P16114 whole entry): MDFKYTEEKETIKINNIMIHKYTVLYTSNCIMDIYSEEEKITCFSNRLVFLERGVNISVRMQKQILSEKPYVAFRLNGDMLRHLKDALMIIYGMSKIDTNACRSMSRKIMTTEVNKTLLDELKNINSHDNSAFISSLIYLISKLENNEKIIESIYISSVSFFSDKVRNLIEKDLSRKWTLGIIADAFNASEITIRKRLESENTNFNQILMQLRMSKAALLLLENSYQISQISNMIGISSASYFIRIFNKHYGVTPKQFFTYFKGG

As to `CCCCN1C=C(c2ccc3ccccc3n2)C(C[N+](=O)[O-])c2ccccc21` (centres unmarked) [Compound A07], the inhibition at 82.5 µM in assay [1], in assay [2] and in assay [3] was 90% throughout.

As to `CCOC(=O)C(C(=O)OCC)C1C(c2ccc3ccccc3n2)=CN(C)c2ccccc21` (centres unmarked) [Compound A2], the figures for the inhibition at 82.5 µM in assay [1], in assay [2] and in assay [3] were 80%, 100% and 80%, respectively.

With `CCCCN1C=C(c2ccc3ccccc3n2)Cc2ccccc21` [Compound A21], the results for the inhibition at 82.5 µM in assay [1], in assay [2] and in assay [3] were 80%, 70% and 60%, respectively.

Regarding `CCC[n+]1cc(-c2ccc3ccccc3n2)cc2ccccc21` [Compound I11], the inhibition (as a rule, how much of the control response was suppressed) at 82.5 µM was 90% in assay [1], 100% in assay [2] and 80% in assay [3].

`CN1C=C(c2ccc3ccccc3n2)C(C[N+](=O)[O-])c2ccccc21` (centres unmarked) [Compound E1]: the inhibition at 82.5 µM was found to be 80% in assay [1], 100% in assay [2] and 90% in assay [3].

Take `Clc1ccc(C[n+]2cc(-c3ccc4ccccc4n3)cc3ccccc32)cc1` [Compound I03]: the inhibition at 82.5 µM in assay [1] came to 50%; in assay [2], 60%; in assay [3], 60%.

Consider `C[n+]1ccccc1/C=C/c1ccc(Br)cc1` [JS03], for which the inhibition at 82.5 µM in assay [1] is 10%; in assay [2], 50%; in assay [3], 20%.

As for `O=[N+]([O-])CC1C(c2ccc3ccccc3n2)=CN(Cc2ccc(Cl)cc2)c2ccccc21` (centres unmarked) [Compound A08], the inhibition at 82.5 µM turned out to be 30% in assay [1], 40% in assay [2] and 40% in assay [3].

As for `CC(C)[n+]1cc(-c2ccc3ccccc3n2)cc2ccccc21` [Compound I10], the values for the inhibition at 82.5 µM in assay [1], in assay [2] and in assay [3] were 90%, 100% and 80%, respectively.

For `CCCC[n+]1cc(-c2ccc3ccccc3c2)cc2ccccc21` [Compound I14], the inhibition at 82.5 µM worked out at 100% in assay [1], 100% in assay [2] and 90% in assay [3].

Consider `CCN1C=C(c2ccc3ccccc3n2)C(C[N+](=O)[O-])c2ccccc21` (centres unmarked) [Compound 2, 1-ethyl-4-(nitromethyl)-3-quinolin-2-yl-4H-quinoline], for which, in assay [4], the “inhibition of the LacI-repressed fusion” value is listed as “substantially less inhibition”. Further, the “inhibition of the RhaS-activated fusion” value in assay [5] is listed as “particularly robust, dose-dependent inhibition”. Also, the inhibition at 82.5 µM in assay [1] stood at 60%; in assay [2] it was 100%; in assay [3], 90%.

Take `CCCCCCCCC[n+]1cc(-c2ccc3ccccc3n2)cc2ccccc21` [Compound I13]: the inhibition at 82.5 µM in assay [1], in assay [2] and in assay [3] was 100% throughout.

In the case of `CCCCN1C=C(c2cccc(C)n2)C(C#N)c2ccccc21` (centres unmarked) [Compound A03], the results for the inhibition at 82.5 µM in assay [1], in assay [2] and in assay [3] were 10%, 0% and 40%, respectively.

With `CCCCN1C=C(c2cccc(C)n2)C(C[N+](=O)[O-])c2ccccc21` (centres unmarked) [Compound A09], the inhibition at 82.5 µM in assay [1] was 0%; in assay [2], 10%; in assay [3], 50%.

For `CN1C=C(c2ccc3ccccc3n2)C(c2c(-c3ccccc3)[nH]c3ccccc23)c2ccccc21` (centres unmarked) [Compound D2], the inhibition at 82.5 µM in assay [1] was determined as 10%; in assay [2] it was 40%; in assay [3], 10%.

Consider `CCCCN1C=C(c2ccc3ccccc3n2)C(C#N)c2ccccc21` (centres unmarked) [Compound A01], for which the inhibition at 82.5 µM in assay [1] is 20%; in assay [2], 20%; in assay [3], 30%.

With `CCCCN1C=C(c2ccc3ccccc3n2)C(C)c2ccccc21` (centres unmarked) [Compound A23], the inhibition at 82.5 µM in assay [1] amounted to 10%; in assay [2] it was 30%; in assay [3], 0%.

Consider `CCCCCC[n+]1cc(-c2ccc3ccccc3n2)cc2ccccc21` [Compound I12], for which the inhibition at 82.5 µM in assay [1] was determined as 100%; in assay [2], 100%; in assay [3], 90%.

With `CCCC[n+]1cc(-c2ccc3ccccc3n2)cc2ccccc21` [Compound I02], the inhibition at 82.5 µM in assay [1], in assay [2] and in assay [3] was 90% throughout.

For the molecule `O=[N+]([O-])CC1C(c2ccc3ccccc3n2)=CN(Cc2ccccc2)c2ccccc21` (centres unmarked) [Compound D3], the figures for the inhibition at 82.5 µM in assay [1], in assay [2] and in assay [3] were 60%, 70% and 60%, respectively.

Regarding `CCOC(=O)CN1C=C(c2ccc3ccccc3n2)C(C[N+](=O)[O-])c2ccccc21` (centres unmarked) [Compound A3], the figures for the inhibition at 82.5 µM in assay [1], in assay [2] and in assay [3] were 30%, 10% and 0%, respectively.

As to `Cc1cccc(C2=CN(Cc3ccc(Cl)cc3)c3ccccc3C2C[N+](=O)[O-])n1` (centres unmarked) [Compound A10], the inhibition at 82.5 µM in assay [1] worked out at 0%; in assay [2], 10%; in assay [3], 30%.

As to `Clc1ccc(C[n+]2cc(-c3ccc4ccccc4n3)cc3ccccc32)cc1.[Br-]` [Compound I01], the % Inhibition (in general, the relative decrease from the control value, in per cent) at 82.5 μM Rns in assay [1] (82.5 μM) was determined as 50%. In addition, the “% Inhibition at 82.5 μM VirF” value in assay [2] (82.5 μM) is on record as 50%. Further, the “% Inhibition at 82.5 μM RhaS” value in assay [3] is 50%.

As to `CN1C=C(c2ccc3ccccc3n2)C(C#N)c2ccccc21` (centres unmarked) [Compound C4], the inhibition at 82.5 µM in assay [1] is 80%; in assay [2], 90%; in assay [3], 70%.

On to `C[n+]1cc(-c2ccc3ccccc3n2)cc2ccccc21` [Compound A24], for which the figures for the inhibition at 82.5 µM in assay [1], in assay [2] and in assay [3] were 90%, 100% and 94%, respectively.

With `C[n+]1sc(Nc2ccccc2)nc1-c1ccccc1` [JS01], the inhibition at 82.5 µM in assay [1], in assay [2] and in assay [3] was 100% throughout.

Turning to `C=CCCC[n+]1cc(-c2ccc3ccccc3n2)cc2ccccc21` [Compound A25], the inhibition at 82.5 µM amounted to 100% in assay [1], 100% in assay [2] and 80% in assay [3].

`CCN1C=C(c2ccc3ccccc3n2)C(C#N)c2ccccc21` (centres unmarked) [Compound A1]: the inhibition at 82.5 µM in assay [1] turned out to be 30%; in assay [2], 20%; in assay [3] it was 30%.
